According to patent publication US20240391885A1, “FORMS OF LINERIXIBAT” (GLAXOSMITHKLINE INTELLECTUAL PROPERTY (NO. 2) LIMITED, priority 2020, published 2024):
Values after ≈ are worked out from the molar mass of the structure shown.

What was measured:
Format in all cases: physicochemical
[1] = Solubility of linerixibat drug substance over pH 1.2-6.8 at 37±1° C. (Experiment 8a); details: for solubility at 1 h / solubility at 4 h / solubility at 24 h: 37 °C, thermodynamic from solid; for solubility at 1 h: 1-hr timepoint; for solubility at 4 h: 4-hr timepoint; for solubility at 24 h: 24-hr timepoint
Method: The solubility of linerixibat drug substance, in respect of Form I and Form III, was determined over the pH range of 1.2-6.8 at 37±1° C. Eight pH values within this range, including buffers at pH 1.2, 4.5 and 6.8 were evaluated. The therapeutic dose for linerixibat is 40 mg.
• SGF=simulated gastric fluid • BR=Britton Robinson

[2] = Solubility of drug substance samples in biorelevant media and sodium acetate buffer (Experiment 8b); details: for solubility at 1 h / solubility at 4 h / solubility at 24 h: thermodynamic from solid
Description: Solubility data was obtained for drug substance samples of linerixibat Form I, linerixibat Form III, and additionally for a sample of Form I compressed to 100 MPa which therefore contained an amount of Form III, in order to replicate typical forces encountered during tablet manufacture.
The media used for the drug substance samples were biorelevant media likely to be experienced in the stomach and the intestine, namely Simulated Gastric Fluid (SGF) over an increasing pH range (1.6, 2.0 and 4.0) and Fasted State Simulated Intestinal Fluid (FaSSIF) at a pH of 6.5. Solubility data was also obtained in 50 mM sodium acetate buffer pH 4.5.

[3] = Miniaturised shake flask solubility in Britton-Robinson buffers and biorelevant media (Experiment 8c); details: 37° C., 1, 4 and 24 hours; FIG. 25
Method: Solubility of Form I and Form III was also measured in Britton-Robinson buffers (pH 2-8), determined and compared using a standardised miniaturised shake flask method via an automated platform using a development HPLC method for quantification post centrifugation and filtration. Samples were run at 37° C. and performed as 2 replicate preparations for each pH condition and 4 replicate preparations for each biorelevant media condition at 1, 4 and 24 hours.

[4] = Conversion of Form I to Form III under mechanical stress / tablet compression (13C SSNMR, XRPD); details: one manufacturing batch of Form I after the final (agitated) drying step; qualitative assessment by 13C SSNMR and XRPD
Description: Upon investigation, this occurrence was attributed to a combination of a relatively large batch size in a smaller filter drier (agitated drying stage) resulting in the wet material being subjected to greater shear forces during agitation, causing some conversion of Form I to Form III. Conversion of Form I to Form III was also observed during tablet compression process. […] During formulation development, samples of the linerixibat compression blend were compacted in a device to mimic the full-scale tableting process. X-ray powder diffractograms (XRPD) were obtained on these “compacts.” As the compression force was increased, the XRPD pattern changed to give loss of intensity of some peaks and formation of other peaks. This indicated the presence of another solid state form, which was subsequently confirmed as Form III. […] The intensities of Form I and Form III peaks in the ^13C SSNMR spectrum qualitatively indicate similar populations of the two polymorphic forms in the sample of mixture. The ^13C SSNMR data were acquired using the same apparatus and conditions as Example 1e.
^13C SSNMR data for linerixibat tablets, 90 mg of Form I compressed with different forces to achieve three different tensile strengths 1.6 MPa, 2.4 MPa and 3.2 MPa, were collected. The ^13C SSNMR data were acquired using the same apparatus and conditions as Example 1e. […]

[5] = Polymorph screen, relative stability of forms; details: relative to the other forms identified from the form screen
Method: Form I of linerixibat, a non-solvated crystalline form that melts with decomposition at onset temperature about 206° C. and peak temperature about 209° C., was identified as the predominant form of linerixibat from a polymorph screen study. Amorphous linerixibat and Form I were used as input material for polymorph screen experiments. […] Form I was obtained from a variety of screening samples, and the solvents used include water, methanol, ethanol, acetone, acetonitrile and ethyl acetate.

[6] = Britton Robinson buffer, pH 3, aqueous buffer, nominal pH 3.0, BR buffer
[7] = Britton Robinson buffer, pH 3.5, aqueous buffer, nominal pH 3.5, BR buffer
[8] = Britton Robinson buffer, pH 3.8, aqueous buffer, nominal pH 3.8, BR buffer
[9] = Britton Robinson buffer, pH 4, aqueous buffer, nominal pH 4.0, BR buffer
[10] = Britton Robinson buffer, pH 5, aqueous buffer, nominal pH 5.0, BR buffer
[11] = acetate buffer, pH 4.5, aqueous buffer, nominal pH 4.5, Acetate buffer
[12] = phosphate buffer, pH 6.8, aqueous buffer, nominal pH 6.8, Phosphate buffer
[13] = simulated gastric fluid (SGF), pH 1.2, simulated gastric fluid, nominal pH 1.2, SGF

solubility at 1 h [1, 6]: 178 µg/mL (≈ 326 µM)
solubility at 4 h [1, 6]: 198 µg/mL (≈ 362 µM)
solubility at 24 h [1, 6]: 232 µg/mL (≈ 424 µM)
solubility at 1 h [1, 7]: 99 µg/mL (≈ 181 µM)
solubility at 4 h [1, 7]: 110 µg/mL (≈ 201 µM)
solubility at 24 h [1, 7]: 128 µg/mL (≈ 234 µM)
solubility at 1 h [1, 8]: 104 µg/mL (≈ 190 µM)
solubility at 4 h [1, 8]: 113 µg/mL (≈ 207 µM)
solubility at 24 h [1, 8]: 131 µg/mL (≈ 240 µM)
solubility at 1 h [1, 9]: 118 µg/mL (≈ 216 µM)
solubility at 4 h [1, 9]: 125 µg/mL (≈ 229 µM)
solubility at 24 h [1, 9]: 146 µg/mL (≈ 267 µM)
solubility at 1 h [1, 10]: 393 µg/mL (≈ 719 µM)
solubility at 4 h [1, 10]: 491 µg/mL (≈ 898 µM)
solubility at 24 h [1, 10]: 650 µg/mL (≈ 1190 µM)
solubility at 1 h [1, 11]: 190 µg/mL (≈ 348 µM)
solubility at 4 h [1, 11]: 214 µg/mL (≈ 391 µM)
solubility at 24 h [1, 11]: 293 µg/mL (≈ 536 µM)
solubility classification ([1]; all pHs in the physiological range except close to the solubility minimum (between pH 3.2 and pH 4.2), high solubility = above 0.16 mg/mL (40 mg in 250 mL)): highly soluble
difference in solubility between Form I and Form III ([1]; pH 1.2-6.8, 37±1° C.): no significant difference
solubility at 1 h [1, 12]: > 1000 µg/mL
solubility at 4 h [1, 12]: > 1000 µg/mL
solubility at 24 h [1, 12]: > 1000 µg/mL
solubility at 1 h [1, 13]: > 1000 µg/mL
solubility at 4 h [1, 13]: > 1000 µg/mL
solubility at 24 h [1, 13]: > 1000 µg/mL
solubility at 1 h ([2]; 50 mM sodium acetate buffer, pH 4.5, aqueous buffer, 50 mM Sodium Acetate Buffer pH 4.5, 1 Hour): 270 µg/mL (≈ 494 µM)
solubility at 4 h ([2]; 50 mM sodium acetate buffer, pH 4.5, aqueous buffer, 50 mM Sodium Acetate Buffer pH 4.5, 4 Hours): 280 µg/mL (≈ 512 µM)
solubility at 24 h ([2]; 50 mM sodium acetate buffer, pH 4.5, aqueous buffer, 50 mM Sodium Acetate Buffer pH 4.5, 24 Hours): 300 µg/mL (≈ 549 µM)
solubility at 1 h ([2]; Fasted State Simulated Intestinal Fluid (FaSSIF), pH 6.5, fassif, FaSSIF pH 6.5, 1 Hour): 5080 µg/mL (≈ 9290 µM)
solubility at 4 h ([2]; Fasted State Simulated Intestinal Fluid (FaSSIF), pH 6.5, fassif, FaSSIF pH 6.5, 4 Hours): 5110 µg/mL (≈ 9350 µM)
solubility at 24 h ([2]; Fasted State Simulated Intestinal Fluid (FaSSIF), pH 6.5, fassif, FaSSIF pH 6.5, 24 Hours): 5310 µg/mL (≈ 9710 µM)
solubility at 1 h ([2]; Simulated Gastric Fluid (SGF), pH 1.6, simulated gastric fluid, SGF pH 1.6, 1 Hour): 7200 µg/mL (≈ 13200 µM)
solubility at 4 h ([2]; Simulated Gastric Fluid (SGF), pH 1.6, simulated gastric fluid, SGF pH 1.6, 4 Hours): 7390 µg/mL (≈ 13500 µM)
solubility at 24 h ([2]; Simulated Gastric Fluid (SGF), pH 1.6, simulated gastric fluid, SGF pH 1.6, 24 Hours): 7910 µg/mL (≈ 14500 µM)
solubility at 1 h ([2]; Simulated Gastric Fluid (SGF), pH 2, simulated gastric fluid, SGF pH 2.0, 1 Hour): 1490 µg/mL (≈ 2730 µM)
solubility at 4 h ([2]; Simulated Gastric Fluid (SGF), pH 2, simulated gastric fluid, SGF pH 2.0, 4 Hours): 1530 µg/mL (≈ 2800 µM)
solubility at 24 h ([2]; Simulated Gastric Fluid (SGF), pH 2, simulated gastric fluid, SGF pH 2.0, 24 Hours): 1620 µg/mL (≈ 2960 µM)
solubility at 1 h ([2]; Simulated Gastric Fluid (SGF), pH 4, simulated gastric fluid, SGF pH 4.0, 1 Hour): 150 µg/mL (≈ 274 µM)
solubility at 4 h ([2]; Simulated Gastric Fluid (SGF), pH 4, simulated gastric fluid, SGF pH 4.0, 4 Hours): 150 µg/mL (≈ 274 µM)
solubility at 24 h ([2]; Simulated Gastric Fluid (SGF), pH 4, simulated gastric fluid, SGF pH 4.0, 24 Hours): 160 µg/mL (≈ 293 µM)
solubility comparison in biorelevant media [3]: very similar
Form III content [4]: ≤ 10 % w/w
relative stability of the form [5]: most stable form
SMILES: CCCC[C@]1(CC)CS(=O)(=O)c2cc(CNC(CC(=O)O)CC(=O)O)c(OC)cc2[C@@H](c2ccccc2)N1 [Form I]
solubility comparison of the forms ([2]; all investigated physiologically relevant pH values (1.6 to 6.5)): Forms I and III have very similar solubilities at all investigated physiologically
